Data from patent publication US20150328109A1, “DERMAL COMPOSITIONS CONTAINING UNNATURAL HYGROSCOPIC AMINO ACIDS” (MEDPHARM LIMITED, priority 2012, published 2015).

Assay: In vitro permeation of Acyclovir through epidermal membrane in Franz type diffusion cells after amino acid pre-treatment
Assay type: in vitro ADME, Human
Conditions: maximal enhancement of the drug's permeation by amino acid pre-treatment
Description: Acyclovir (ACV), metronidazole and diclofenac diethylamine (DDEA) were analysed using HPLC, using of a Waters Alliance Separations Module and Waters detector. The temperature of the column and samples were maintained at 45±2° C. and 5.0±2° C., respectively. A Kinetix™ C-18 (Phenomenex, USA) column (150 mm×4.6 mm 5 μm particle size) with a guard column (Phenomenex USA, C-18 4.0×3.0 mm) was employed as the stationary phase. The mobile phase was three part; mobile phase A, water; mobile phase B, methanol; and mobile phase C, 10 mM ammonium phosphate buffer pH 2.5. The mobile phase was run using a gradient flow (Table 2) with a flow rate of 0.8 mL/min. Samples were run for 12 minutes with an injection volume of 10 μL. Acyclovir, metronidazole and DDEA were processed at a wavelength of 276 nm, with approximate retention times of 4.7, 6.5, and 8.7 min, respectively. Calibration curves were constructed from a series of standards prepared by serial dilution in conjunction with separately prepared quality controls. […] Data were recorded and analysed using Empower Pro^3 Software. […]
Three experiments were performed, one for each API (Acyclovir, metronidazole and DDEA). […] The integrity of the epidermal membrane was assessed using electrical resistance to ensure the epidermal membrane was intact. […] Samples were analysed using HPLC and the level of each API that had permeated was quantified.

ER (drug absorption enhancement factor): 12
Compound: Nc1nc2c(ncn2COCCO)c(=O)[nH]1 [ACV, Acyclovir]
